Test results as given in patent US10150747B2, “Compounds for the treatment of hepatitis C” (BRISTOL-MYERS SQUIBB COMPANY, priority 2015, dated 2018).
Read-outs that look alike come from different tables or passages of the source.

Tests used:
[1] = system: genotype 1b (Con-1) HCV replicon in Huh-7 cells; assay: HCV replicon luciferase assay (1b replicon); type: cell-based; details: Hepatitis C virus
Description: The cell lines used to evaluate compounds consist of a human hepatocyte derived cell line (Huh-7) that constitutively expresses a genotype 1b (Con-1) HCV replicon or a genotype 1b (Con-1) HCV replicon with an asparagine replacing the cysteine at amino acid 316, or a genotype 2a (JFH-1) replicon, containing a Renilla luciferase reporter gene. These cells were maintained in Dulbecco's modified Eagle medium (DMEM) containing 10% FBS, 100 U/mL penicillin/streptomycin and 1.0 mg/mL G418.
HCV Replicon Luciferase Assay.
After 3 days incubation at 37° C., cells were analyzed for Renilla Luciferase activity using the EnduRen substrate (Promega cat #E6485) according to the manufacturer's directions. Briefly, the EnduRen substrate was diluted in DMEM and then added to the plates to a final concentration of 7.5 μM. The plates were incubated for at least 1 h at 37° C. then read on a Viewlux Imager (PerkinElmer) using a luminescence program.

[2] = biological target: HCV NS5B genotype 1b (Con1) (Hepatitis C virus genotype 1b (isolate Con1) (HCV), UniProt Q9WMX2); assay: HCV NS5B RdRp enzyme assay (1b enzyme); type: biochemical; details: genotype 1b NS5B enzyme
Description: HCV NS5B RdRp Cloning, Expression, and Purification.
The cDNA encoding NS5B proteins of HCV genotype 1b (Con1), a genotype 1b variant with amino acid 316 mutated from cysteine to asparagine, and genotype 2a (JFH-1), were cloned into the pET21a expression vector. Each untagged protein was expressed with an 18 amino acid C-terminal truncation to enhance the solubility. The E. coli competent cell line BL21(DE3) was used for expression of the protein. Cultures were grown at 37° C. for ˜4 hours until the cultures reached an optical density of 2.0 at 600 nm. The cultures were cooled to 20° C. and induced with 1 mM IPTG. Fresh ampicillin was added to a final concentration of 50 μg/mL and the cells were grown overnight at 20° C.
The lysis buffer consisted of 20 mM Tris-HCl, pH 7.4, 500 mM NaCl, 0.5% triton X-100, 1 mM DTT, 1 mM EDTA, 20% glycerol, 0.5 mg/mL lysozyme, 10 mM MgCl2, 15 ug/mL deoxyribonuclease I, and Complete TM protease inhibitor tablets (Roche). After addition of the lysis buffer, frozen cell pellets were resuspended using a tissue homogenizer. To reduce the viscosity of the sample, aliquots of the lysate were sonicated on ice using a microtip attached to a Branson sonicator. The sonicated lysate was centrifuged at 100,000×g for 30 minutes at 4° C. and filtered through a 0.2 μm filter unit (Corning).
The protein was purified using two sequential chromatography steps: Heparin sepharose CL-6B and polyU sepharose 4B. The chromatography buffers were identical to the lysis buffer but contained no lysozyme, deoxyribonuclease I, MgCl2 or protease inhibitor and the NaCl concentration of the buffer was adjusted according to the requirements for charging the protein onto the column. Each column was eluted with a NaCl gradient which varied in length from 5-50 column volumes depending on the column type. […] The enzyme was aliquoted and stored at −80° C.
HCV NS5B RdRp Enzyme Assay.
An on-bead solid phase homogeneous assay was used in a 384-well format to assess NS5B inhibitors (WangY-K, Rigat K, Roberts S, and Gao M (2006) Anal Biochem, 359: 106-111). The biotinylated oligo dT12 primer was captured on streptavidin-coupled imaging beads (GE, RPNQ0261) by mixing primer and beads in 1× buffer and incubating at room temperature for three hours. Unbound primer was removed after centrifugation. The primer-bound beads were resuspended in 3× reaction mix (20 mM Hepes buffer, pH 7.5, dT primer coupled beads, poly A template, ^3H-UTP, and RNAse inhibitor (Promega N2515)). Compounds were serially diluted 1:3 in DMSO and aliquoted into assay plates. Equal volumes (5 μL) of water, 3× reaction mix, and enzyme in 3× assay buffer (60 mM Hepes buffer, pH 7.5, 7.5 mM MgCl2, 7.5 mM KCl, 3 mM DTT, 0.03 mg/mL BSA, 6% glycerol) were added to the diluted compound on the assay plate. Final concentration of components in 384-well assay: 0.36 nM template, 15 nM primer, 0.29 μM ^3H-UTP (0.3 μCi), 1.6 U/4 RNAse inhibitor, 7 nM NS5B enzyme, 0.01 mg/mL BSA, 1 mM DTT, and 0.33 μg/μL beads, 20 mM Hepes buffer, pH 7.5, 2.5 mM MgCl2, 2.5 mM KCl, and 0.1% DMSO.
Reactions were allowed to proceed for 24 hours at 30° C. and terminated by the addition of 50 mM EDTA (5 μL). After incubating for at least 15 minutes, plates were read on an Amersham LEADseeker multimodality imaging system.
IC50 values for compounds were determined using ten different [I]. IC50 values were calculated from the inhibition using the four-parameter logistic formula y=A+((B−A)/(1+((C/x)^D))), where A and B denote minimal and maximal % inhibition, respectively, C is the IC50, D is hill slope and x represents compound concentration.

[3] = 72 h, genotype 1b replicon, Huh-7, Renilla luciferase, 3 days incubation, read-out: EC50

Chain of HCV NS5B genotype 1b (Con1) (Q9WMX2 2420-2992): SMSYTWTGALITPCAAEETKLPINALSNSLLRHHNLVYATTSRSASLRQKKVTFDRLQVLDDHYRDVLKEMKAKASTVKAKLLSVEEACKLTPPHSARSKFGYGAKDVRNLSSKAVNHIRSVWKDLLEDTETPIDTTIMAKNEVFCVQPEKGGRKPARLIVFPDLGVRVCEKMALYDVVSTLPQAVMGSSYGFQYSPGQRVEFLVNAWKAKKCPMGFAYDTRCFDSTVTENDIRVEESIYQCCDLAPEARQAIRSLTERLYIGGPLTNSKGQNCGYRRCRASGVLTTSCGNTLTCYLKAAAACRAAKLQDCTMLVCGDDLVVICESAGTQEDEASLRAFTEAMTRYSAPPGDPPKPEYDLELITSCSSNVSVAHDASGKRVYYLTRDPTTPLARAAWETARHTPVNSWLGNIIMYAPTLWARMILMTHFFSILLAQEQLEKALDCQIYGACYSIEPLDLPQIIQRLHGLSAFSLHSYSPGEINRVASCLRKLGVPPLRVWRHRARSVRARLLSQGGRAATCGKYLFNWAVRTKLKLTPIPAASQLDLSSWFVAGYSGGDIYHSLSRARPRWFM

| SMILES | EC50 [1, 3] [nM] | IC50 [2] [nM] | EC50 ([1]; Huh-7, 72 h) [nM] |
| --- | --- | --- | --- |
| CCOc1cc2oc(-c3ccc(F)cc3)c(C(=O)NC)c2cc1-c1cccc(C(=O)NC23CC(C2)C3)c1 [Example 5, 5-(3-(Bicyclo[1.1.1]pentan-1-ylcarbamoyl)phenyl)-6-ethoxy-2-(4-fluorophenyl)-N-methylbenzofuran-3-carboxamide] | 6.5 | 4.3 | – |
| CCCOc1cc2oc(-c3ccc(F)cc3)c(C(=O)NC)c2cc1-c1ccc(OC)c(C(=O)NC(C)(C)c2ncon2)c1 [Example 25, 5-(3-((2-(1,2,4-oxadiazol-3-yl)propan-2-yl)carbamoyl)-4-methoxyphenyl)-2-(4-fluorophenyl)-N-methyl-6-propoxybenzofuran-3-carboxamide] | 6.23 | 2.48 | – |
| CNC(=O)c1c(-c2ccc(F)cc2)oc2cc(OCC(F)(F)F)c(-c3ccc(F)c(C(=O)NC45CC(C4)C5)c3)cc12 [Example 4, 5-(3-(Bicyclo[1.1.1]pentan-1-ylcarbamoyl)-4-fluorophenyl)-2-(4-fluorophenyl)-N-methyl-6-(2,2,2-trifluoroethoxy)benzofuran-3-carboxamide] | 8.61 | 3.88 | – |
| CNC(=O)c1c(-c2ccc(F)cc2)oc2cc(OCC(F)(F)F)c(-c3cnc(OC)c(C(=O)NC(C)(C)c4ncon4)c3)cc12 [Example 31, N-(2-(1,2,4-Oxadiazol-3-yl)propan-2-yl)-5-(2-(4-fluorophenyl)-3-(methylcarbamoyl)-6-(2,2,2-trifluoroethoxy)benzofuran-5-yl)-2-methoxynicotinamide] | 3.21 | – | – |
| CCOc1cc2oc(-c3ccc(F)cc3)c(C(=O)NC)c2cc1-c1cccc(C(=O)NC2(c3ncccn3)CC2)c1 [Example 7, 6-Ethoxy-2-(4-fluorophenyl)-N-methyl-5-(3-((1-(pyrimidin-2-yl)cyclopropyl)carbamoyl)phenyl)benzofuran-3-carboxamide] | 10 | 5.78 | – |
| CCOc1cc2oc(-c3ccc(F)cc3)c(C(=O)NC)c2cc1-c1ccc(OC)c(C(=O)NC2(c3ncccn3)CC2)c1 [Example 12, 6-Ethoxy-2-(4-fluorophenyl)-5-(4-methoxy-3-((1-(pyrimidin-2-yl)cyclopropyl)carbamoyl)phenyl)-N-methylbenzofuran-3-carboxamide] | 4.2 | 1.89 | – |
| CNC(=O)c1c(-c2ccc(F)cc2)oc2cc(OCC(F)F)c(-c3cccc(C(=O)NC4(c5ncccn5)CC4)c3)cc12 [Example 20, 6-(2,2-difluoroethoxy)-2-(4-fluorophenyl)-N-methyl-5-(3-((1-(pyrimidin-2-yl)cyclopropyl)carbamoyl)phenyl)benzofuran-3-carboxamide] | – | 4.54 | 6.79 |
| CNC(=O)c1c(-c2ccc(F)cc2)oc2cc(OCC(F)(F)F)c(-c3cccc(C(=O)NC4(c5ncccn5)CC4)c3)cc12 [Example 1, 2-(4-Fluorophenyl)-N-methyl-5-(3-((1-(pyrimidin-2-yl)cyclopropyl)carbamoyl)phenyl)-6-(2,2,2-trifluoroethoxy)benzofuran-3-carboxamide] | 10 | 7.42 | – |
| CCOc1cc2oc(-c3ccc(F)cc3)c(C(=O)NC)c2cc1-c1cnc(OC)c(C(=O)NC23CC(C2)C3)c1 [Example 15, N-(bicyclo[1.1.1]pentan-1-yl)-5-(6-ethoxy-2-(4-fluorophenyl)-3-(methylcarbamoyl)benzofuran-5-yl)-2-methoxynicotinamide] | 7.03 | 2.48 | – |
| [2H]C([2H])([2H])Oc1ccc(-c2cc3c(C(=O)NC)c(-c4ccc(F)cc4)oc3cc2OCC)cc1C(=O)NC(C)(C)C#N [Example 28, 5-(3-((2-cyanopropan-2-yl)carbamoyl)-4-(methoxy-d3)phenyl)-6-ethoxy-2-(4-fluorophenyl)-N-methylbenzofuran-3-carboxamide] | 2.01 | 2.04 | – |
| [2H]C([2H])([2H])Oc1ccc(-c2cc3c(C(=O)NC)c(-c4ccc(F)cc4)oc3cc2OCC)cc1C(=O)NC(C)(C)c1ncsn1 [Example 33, 5-(3-((2-(1,2,4-thiadiazol-3-yl)propan-2-yl)carbamoyl)-4-(methoxy-d3)phenyl)-6-ethoxy-2-(4-fluorophenyl)-N-methylbenzofuran-3-carboxamide] | 2.49 | 2.04 | – |
| CNC(=O)c1c(-c2ccc(F)cc2)oc2cc(OCC(F)(F)F)c(-c3ccc(F)c(C(=O)NC4(c5ncccn5)CC4)c3)cc12 [Example 3, 5-(4-Fluoro-3-((1-(pyrimidin-2-yl)cyclopropyl)carbamoyl)phenyl)-2-(4-fluorophenyl)-N-methyl-6-(2,2,2-trifluoroethoxy)benzofuran-3-carboxamide] | 6.7 | 4.38 | – |
| CCOc1cc2oc(-c3ccc(F)cc3)c(C(=O)NC)c2cc1-c1ccc(OC)c(C(=O)NC23CC(C2)C3)c1 [Example 11, 5-(3-(Bicyclo[1.1.1]pentan-1-ylcarbamoyl)-4-methoxyphenyl)-6-ethoxy-2-(4-fluorophenyl)-N-methylbenzofuran-3-carboxamide] | 9.63 | – | – |
| CCOc1cc2oc(-c3ccc(F)cc3)c(C(=O)NC)c2cc1-c1ccc(CC)c(C(=O)NC(C)(C)c2ncon2)c1 [Example 24, 5-(3-((2-(1,2,4-oxadiazol-3-yl)propan-2-yl)carbamoyl)-4-ethylphenyl)-6-ethoxy-2-(4-fluorophenyl)-N-methylbenzofuran-3-carboxamide] | 280 | > 2500 | – |
| [2H]C([2H])([2H])Oc1ncc(-c2cc3c(C(=O)NC)c(-c4ccc(F)cc4)oc3cc2OCC)cc1C(=O)NC(C)(C)C#N [Example 17, N-(2-cyanopropan-2-yl)-5-(6-ethoxy-2-(4-fluorophenyl)-3-(methylcarbamoyl)benzofuran-5-yl)-2-(methoxy-d3)nicotinamide] | – | 1.84 | 2.8 |
| CNC(=O)c1c(-c2ccc(F)cc2)oc2cc(OCC(F)(F)F)c(-c3cnc(OC)c(C(=O)NC45CC(C4)C5)c3)cc12 [Example 30, N-(Bicyclo[1.1.1]pentan-1-yl)-5-(2-(4-fluorophenyl)-3-(methylcarbamoyl)-6-(2,2,2-trifluoroethoxy)benzofuran-5-yl)-2-methoxynicotinamide] | 10 | – | – |
| CNC(=O)c1c(-c2ccc(F)cc2)oc2cc(OCC(F)(F)F)c(-c3cccc(C(=O)NC(C)(C)c4ncon4)c3)cc12 [Example 21, 5-(3-((2-(1,2,4-oxadiazol-3-yl)propan-2-yl)carbamoyl)phenyl)-2-(4-fluorophenyl)-N-methyl-6-(2,2,2-trifluoroethoxy)benzofuran-3-carboxamide] | 10 | 4.49 | – |
| CNC(=O)c1c(-c2ccc(F)cc2)oc2cc(OCC(F)(F)F)c(-c3cccc(C(=O)NC4(C#N)CC4)c3)cc12 [Example 8, 5-(3-((1-Cyanocyclopropyl)carbamoyl)phenyl)-2-(4-fluorophenyl)-N-methyl-6-(2,2,2-trifluoroethoxy)benzofuran-3-carboxamide] | 20 | 4.97 | – |
